Here are results for 17 molecules from patent US8952192B2, “Phosphorylated and branched dihydroxy-pentane-dione (DPD) analogs as quorum sensing inhibitors in bacteria” (University of Maryland, College Park, priority 2011, dated 2015).

As a reminder, the IC50 is the midpoint of a concentration-inhibition curve.

Like-named read-outs stand apart in the source and are kept apart here.

Experiment [1] relates to lsr expression in E. coli (lsr-lacZ reporter strains). The experiment can be described thus: QS response (lsr expression): AI-2 dependent β-galactosidase production, Miller assay. In kind it is cell-based, Escherichia coli. The note with it: for inhibition of AI-2-mediated lsr expression (β-galactosidase), in words: E. coli LW7 pLW11 (luxS−), 20 μM AI-2 (DPD) + 20 μM analog; for effect on native lsr expression (QS response): E. coli ZK126 pLW11 (luxS+), cells produce their own AI-2; for IC50: Escherichia coli. On the procedure:
(§1) The panel of C1-alkyl analogs was screened to identify QS modulators in the enteric bacteria E. coli and S. typhimurium. Transcription of the QS associated lsr operon, by using lsr-lacZ reporter strains (Table 2) which produce β-galactosidase in response to added AI-2 was monitored. In order to first establish if the analogs were agonists or antagonists in the QS circuit, the analogs were incubated with E. coli LW7 pLW11 and S. typhimurium MET715 (FIG. 19a-b) both of which are luxS^−. None of the analogs, except ethyl-DPD behaved as agonists for lsr expression. Previous studies investigating AI-2 antagonism in P. aeruginosa or in S. typhimurium were carried out using chemically synthesized AI-2 added to luxS^− cells. […] The same trends were obtained by adding a 1:1 ratio of enzymatically synthesized AI-2 and DPD analogs to the luxS^− strains E. coli LW7 pLW11 and S. typhimurium MET715 (FIG. 11a-b). None of the tested DPD analogs were bacteriocidal or bacteriostatic as the OD600 values of E. coli ZK126 pLW11 and S. typhimurium MET708 in the presence and absence of the analogs were similar (FIG. 10). Though the QS circuitry of the enteric organisms, E. coli and S. typhimurium are homologous they respond differently to the DPD analogs. The E. coli QS circuitry is susceptible to being silenced by a variety of DPD analogs of different shapes and sizes whereas in S. typhimurium, only a handful of DPD analogs could antagonize the action of AI-2. […] Isobutyl-DPD emerged as an effective and non-species-specific quencher; causing significant lsr expression knockdowns in both E. coli and S. typhimurium.
(§2) The QS response indicated by lsr gene expression was analyzed in pure culture studies by culturing E. coli LW7 pLW11, E. coli ZK126 pLW11 and S. typhimurium MET708, S. typhimurium MET715 overnight in LB medium supplemented with appropriate antibiotics as stated previously. These cells were then diluted into fresh LB medium (with antibiotics) and grown to an OD600 of 0.8-1.0 at 30° C., 250 rpm. Cells were then collected by centrifugation at 10,000×g for 10 minutes, and resuspended in 10 mM phosphate buffer. AI-2 (20 μM) and the respective analog (20 μM) were added to the E. coli or S. typhimurium suspension for 2 hours at 37° C. AI-2 dependent β-galactosidase production was quantified by the Miller assay.
(§3) The QS response indicated by lsr gene expression was analyzed in pure culture studies by culturing E. coli LW7 pLW11 and S. typhimurium MET715 overnight at 30° C. in LB medium supplemented with appropriate antibiotics as stated previously. These cells were then diluted into fresh LB medium (with antibiotics) and grown to an OD600 of 0.4-0.8 at 37° C., 250 rpm. Cells were then collected by centrifugation at 10,000×g for 10 min and resuspended in 10 mM phosphate buffer. AI-2 (20 μM) and the respective analog (20 μM) were added to the E. coli or S. typhimurium suspension for 2 h at 37° C. AI-2 dependent β-galactosidase production was quantified by the Miller assay.
(§4) The QS response indicated by lsr gene expression was analyzed in pure culture studies by culturing E. coli LW7 pLW11, E. coli ZK126 pLW11 and S. typhimurium MET708, S. typhimurium MET715 overnight in LB medium individually supplemented with appropriate antibiotics, as specified above. These cells were diluted into fresh LB medium (with antibiotics) and grown to an OD600 of 0.8-1.0 at 30° C., 250 rpm. Cells were collected by centrifugation at 10,000×g for 10 minutes, and resuspended in 10 mM phosphate buffer. AI-2 (20 μM) and the respective analog (20 μM) were added to the E. coli or S. typhimurium suspension for 2 hours at 37° C. AI-2 dependent β-galactosidase production was quantified by the Miller assay.

Another experiment has as its target T1, LsrK (Escherichia coli, UniProt P77432).
T1 construct: made in house; host or cells: E. coli BL21
The experiment can be described thus: In vitro phosphorylation of analogs by LsrK (TLC, autoradiography). The note with it: for phosphorylation by E. coli LsrK: incubation with LsrK in vitro for one hour (Example 6). In kind it is biochemical, E. coli. The protocol:
LsrK was purified and from E. coli BL21 pET200-LsrK as described before. Phosphorylated analogs were synthesized by incubating 1 μM) LsrK with 40 μM ATP (Roche), […] of [γ-^32P] […] A 5 μL aliquot was then spotted onto a cellulose TLC plate (Selecto Scientific). The plate was developed using 0.8 M LiCl as the solvent, air dried and developed via autoradiography.
LsrK was purified from E. coli BL21 pET200-LsrK as described before. Phosphorylated analogs were synthesized by incubating (1 μM) LsrK with (40 μM) ATP (Roche), ([…]) of [P^32] […] An aliquot (2.5 μL) was then spotted onto a cellulose TLC plate (Selecto Scientific). The plate was developed using 0.8 M LiCl as the solvent, air dried and developed via autoradiography.

Experiment [2] deals with lsr expression in S. typhimurium (lsr-lacZ reporter strains). The experiment can be described thus: QS response (lsr expression): AI-2 dependent β-galactosidase production, Miller assay. In kind it is cell-based, Salmonella typhimurium. The note with it: for effect on AI-2-mediated lsr expression (β-galactosidase), in words: S. typhimurium MET715 (luxS−), 20 μM AI-2 (DPD) + 20 μM analog. On the procedure:
as §1, §2, §3, §4

For another experiment, the system named is E. coli. As to the kind of experiment: DPD analogs and representative bacterial species affected (Table 1). In kind it is cell-based. The arrangement: key: x: DPD Analogs and representative bacterial species affected.
Another experiment relates to V. harveyi. Described as above. Further details: key: x: DPD Analogs and representative bacterial species affected. In kind it is cell-based.
Experiment [3] concerns pre-formed P. aeruginosa biofilms (PAO1). The experiment can be described thus: Effects on pre-formed P. aeruginosa biofilms (microfluidic flow cell, COMSTAT, optical density). In kind it is cell-based. Particulars: gentamicin alone. On the procedure: (§5) The E. coli biofilms were formed using the strain K-12 MG1655 ATCC(47076). P. aeruginosa biofilms were formed using wild type strain PAO1. For both strains, overnight cultures were diluted to an OD600 of 0.25, introduced into the microfluidic channel, and incubated with no flow at 37° C. for 2 h. LB (Luria Bertani) growth medium was then continuously flowed into the device at a rate of 10 μL/hr. As needed, this medium was supplemented with various concentrations of analog or antibiotic at specified times. In studies of biofilm inhibition, after 2 hours of cell incubation, the analog diluted in LB medium is flown into the microfluidic channel for 48 hours at 10 μL/hr. In studies of effects on pre-formed biofilms, LB is introduced over the cells at 10 μL/hr for a period of 36 to 48 hours to yield stable biofilms. Then, the analog or analog-antibiotic combination was introduced for an additional 36 to 48 hours.
(§6) Biofilms were stained in situ for microscopy. They were first treated with a Live/Dead bacterial labeling kit (Invitrogen #L7012) in which two labeling components were mixed in a 1:1 ratio to a final volume of 10 μL. The dye was introduced into the channel at 10 μL/hr, the same flow rate as during biofilm growth. This treatment was then followed by 10 μL/hr of a 100 μg/mL calcofluor (Fluorescence Brightener 28, Sigma #F3543) solution for labeling polysaccharides contained in the biofilm matrix. The dyes are fixed by flowing in 3% paraformaldehyde at the same flow rate.
(§7) Labeled samples are imaged using a confocal microscope (Zeiss LSM710). For unpatterned coverslips, Z-stacks were obtained at 7 points in each microfluidic channel, each stack was comprised of 150 slices. For patterned coverslips used while measuring the optical density of the biofilms, two stacks were obtained in each channel (i.e. one at each pinhole). The image stacks were analyzed using COMSTAT, which provides morphological characteristics. Average biofilm thickness and biomass were averaged over the image stacks obtained at each of these 7 data points in the microfluidic channel. Additionally, surface reconstructions of the biofilms were created using Imaris (Bitplane) to aid in visualization of the resulting structures.
(§8) The data corresponding to the change in optical density of the biofilms were obtained from the photodiodes using the standard methodologies. Data for each channel (the average of the response of the two photodiodes) was normalized with respect to the optical density at 48 hours; this method reflects that as of 48 hours, the biofilms have been grown under identical conditions although their optical density values may not be identical. Additionally, since the optical density data itself fluctuates as the biofilm grows, the data for each curve was fitted using a Churchill model (Churchill et al, 1972), represented by log N=[f1^−1+f2^−1]^−1 (1)

Experiment [4] relates to pre-formed E. coli biofilms (K-12 MG1655). The experiment can be described thus: Effects on pre-formed E. coli biofilms (microfluidic flow cell, COMSTAT, optical density). In kind it is cell-based. The protocol: as §5, §6, §7, §8

T1 sequence (P77432 whole entry): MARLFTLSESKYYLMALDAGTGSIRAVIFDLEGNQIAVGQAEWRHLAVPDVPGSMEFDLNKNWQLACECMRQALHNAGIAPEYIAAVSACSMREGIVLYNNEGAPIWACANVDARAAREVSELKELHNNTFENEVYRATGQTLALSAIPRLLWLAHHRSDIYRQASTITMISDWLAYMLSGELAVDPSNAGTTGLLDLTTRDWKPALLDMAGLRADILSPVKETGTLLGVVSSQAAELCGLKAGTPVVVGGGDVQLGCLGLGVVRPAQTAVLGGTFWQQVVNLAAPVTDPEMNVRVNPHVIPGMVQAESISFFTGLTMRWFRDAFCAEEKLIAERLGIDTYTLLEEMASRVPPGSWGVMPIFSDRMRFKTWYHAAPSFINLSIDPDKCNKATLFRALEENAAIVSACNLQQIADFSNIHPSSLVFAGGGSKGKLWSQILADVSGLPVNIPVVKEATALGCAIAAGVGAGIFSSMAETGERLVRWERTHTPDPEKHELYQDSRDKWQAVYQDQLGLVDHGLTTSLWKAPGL

For CH2-cyclohexyl-DPD, the “inhibition of AI-2-mediated lsr expression (β-galactosidase), in words” value (from here on “inhibition”) in experiment [1] is listed as “attenuated lsr expression in E. coli to a lesser extent”. Further, the “phosphorylation by E. coli LsrK” value was “weakly phosphorylated” at LsrK and “not phosphorylated” on LsrK (listed as CH2-cyclohexyl).

`CC(=O)OCC(OC(C)=O)C(=O)C(=O)CC(C)C` (centres unmarked) [Compound 23, 6-methyl-3,4-dioxoheptane-1,2-diyl diacetate]: in experiment [1], the “inhibition” value is on record as “as effective QS quenchers as the unprotected isobutyl DPD”.

With 2-methylpropyl-DPD, the “effect on native lsr expression (QS response)” value (“effect on native lsr expression” for short) in experiment [1] is listed as “substantial reduction”.

As to `O=C(C(=O)C1CCCC1)C(O)CO` (centres unmarked) [Cyclopentyl-DPD, Cyclopentyl DPD], in experiment [2], the “effect on AI-2-mediated lsr expression (β-galactosidase), in words” value is listed as “increased expression”. In addition, the “reduction in lsr promoter activity” value in experiment [1] (E. coli LW7, 20 μM DPD + 20 uM analog) was “over 60%”. Besides, in experiment [1], the “inhibition” value is “inhibit lsr expression”. For the same molecule, the IC50 in experiment [1] (Example 6, read-out: IC50 (lsr expression in E. coli)) amounted to 2400 nM; in experiment [1] (concentration reducing lsr expression (β-galactosidase production) to 50% in the presence of 20 μM exogenously added synthetic DPD, read-out: IC50 of analog (nM) to inhibit QS in E. coli) it was 2440 nM. For the same molecule, the “phosphorylation by E. coli LsrK” value on LsrK is given as “significantly phosphorylated”. In addition, in the experiment on E. coli, the “bacterial species affected: E. coli” value is reported as “x”.

Regarding deoxy-isobutyl-DPD, the “effect on native lsr expression” value in experiment [1] is “unable to silence the lsr operon”.

With `O=C(C(=O)C(O)CO)c1ccc([N+](=O)[O-])cc1` (centres unmarked) [Nitrophenyl-DPD, 4-nitrophenyl DPD], in experiment [2], the “effect on AI-2-mediated lsr expression (β-galactosidase), in words” value is reported as “increased QS response”. Also, the “inhibition” value in experiment [1] was “no”.

With `CCCCC(=O)OCC(OC(=O)CCCC)C(=O)C(C)=O` (centres unmarked) [Compound 21, 3,4-dioxopentane-1,2-diyl dipentanoate], the “induction of lsr expression (β-galactosidase)” value in experiment [2] (S. typhimurium MET715 (LuxS−), 20 μM compound, no AI-2 added) was “as effective as DPD”.

Consider `CC(=O)C(=O)C(O)CO` (centres unmarked) [AI-2, 4,5-dihydroxy-2,3-pentanedione, reference compound], for which, in experiment [2] (S. typhimurium MET715 (LuxS−), 20 μM AI-2 added), the “more LacZ present than without AI-2” value is given as “about 30%”.

In the case of `CCCCC(=O)OCC(OC(=O)CCCC)C(=O)C(=O)CC(C)C` (centres unmarked) [Compound 25, 6-methyl-3,4-dioxoheptane-1,2-diyl dipentanoate], the “inhibition” value in experiment [1] is “reduced”.

As to `CCCCCC(=O)C(=O)[C@@H](O)CO` [Pentyl DPD], the “bacterial species affected: V. harveyi” value with V. harveyi was “x”. In the experiment with E. coli, the “bacterial species affected: E. coli” value is given as “x”.

For the molecule `CC(C)(C)CC(=O)C(=O)C(O)CO` (centres unmarked) [neopentyl-DPD], the “effect on native lsr expression” value in experiment [1] is “substantial reduction”.

Turning to `O=C(C(=O)C1CC1)C(O)CO` (centres unmarked) [cyclopropyl-DPD], the “effect on native lsr expression” value in experiment [1] is recorded as “neither an lsr agonist nor antagonist”. Moreover, the “phosphorylation by LsrK” value on LsrK (incubation with LsrK and excess ATP for 2 hours (Example 1)) was “phosphorylated”.

Take `O=C(C(=O)C1CCCCCC1)C(O)CO` (centres unmarked) [Cycloheptyl-DPD, Cycloheptyl DPD]: the “inhibition” value in experiment [1] is on record as “nor did they affect LsrR-controlled transcription”. The “phosphorylation by E. coli LsrK” value is given as “Neither Cycloheptyl-DPD nor the aromatic analogs were phosphorylated” on LsrK and “not phosphorylated” on LsrK (listed as cycloheptyl).

Consider `CCCCCC(=O)OCC(OC(=O)CCCCC)C(=O)C(=O)CC(C)C` (centres unmarked) [Compound 26, 6-methyl-3,4-dioxoheptane-1,2-diyl dihexanoate], for which the “inhibition” value in experiment [1] is given as “abrogated”.

With `CCCC(=O)OCC(OC(=O)CCC)C(=O)C(=O)CC(C)C` (centres unmarked) [Compound 24, 6-methyl-3,4-dioxoheptane-1,2-diyl dibutyrate], in experiment [1], the “inhibition” value is listed as “as effective QS quenchers as the unprotected isobutyl DPD”.

gentamicin [reference compound]: the biofilm reduction in experiment [3] is reported as roughly 0%. Moreover, the “course of biofilm optical density after 48 h, in words” value in experiment [3] (continuous optical density measurement) is listed as “slowed the progress of biofilm maturation”; in experiment [4] (gentamicin alone, continuous optical density measurement), “slowed the progress of biofilm maturation”. In experiment [4] (gentamicin 5 μg/ml without AI-2 analog), the “drop of biofilm biomass” value was roughly 50%. The average biofilm biomass in experiment [4] (gentamicin 5 μg/ml without AI-2 analog, LB only 8.5 μm^3/μm^2) amounted to 3.5 μm^3/μm^2. Moreover, the average biofilm thickness in experiment [4] (gentamicin 5 μg/ml without AI-2 analog, LB only 12 μm) is 10 μm.

As to `O=C(C(=O)C(O)CO)c1ccc(F)cc1` (centres unmarked) [fluorophenyl, 4-fluorophenyl DPD], the “inhibition” value in experiment [1] is listed as “no”.
